Residues, ends and D or L forms follow the SMILES beside them.
What was measured:
Format in all cases: protein assay
[1] = molecular target: T1, Keap1/Nrf2 (Homo sapiens, UniProt Q14145+Q16236); test: Binding affinity to Keap1/Nrf2 complex (unknown origin) by fluorescence polarization assay
[2] = molecular target: T1, Keap1/Nrf2; test: Inhibition of Keap1/Nrf2 complex (unknown origin)
[3] = molecular target: T1, Keap1/Nrf2; test: Binding affinity to Keap1/Nrf2 complex (unknown origin) by ITC method

T1 sequence (Q16236 whole entry): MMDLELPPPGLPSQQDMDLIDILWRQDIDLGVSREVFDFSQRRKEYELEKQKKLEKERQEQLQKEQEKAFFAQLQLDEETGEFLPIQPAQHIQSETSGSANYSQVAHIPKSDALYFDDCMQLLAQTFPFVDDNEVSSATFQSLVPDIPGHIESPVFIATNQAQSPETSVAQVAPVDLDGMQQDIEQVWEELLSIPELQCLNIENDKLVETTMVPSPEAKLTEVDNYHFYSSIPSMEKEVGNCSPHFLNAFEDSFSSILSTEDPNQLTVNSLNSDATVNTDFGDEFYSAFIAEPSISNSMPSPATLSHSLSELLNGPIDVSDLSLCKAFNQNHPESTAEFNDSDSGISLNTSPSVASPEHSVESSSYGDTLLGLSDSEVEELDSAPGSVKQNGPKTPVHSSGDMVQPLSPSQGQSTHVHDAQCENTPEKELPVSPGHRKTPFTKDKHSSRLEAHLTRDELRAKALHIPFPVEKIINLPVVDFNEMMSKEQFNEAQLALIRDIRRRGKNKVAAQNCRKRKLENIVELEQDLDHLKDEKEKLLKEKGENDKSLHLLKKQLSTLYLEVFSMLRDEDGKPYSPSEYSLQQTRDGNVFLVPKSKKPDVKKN
T1 sequence (Q14145 whole entry): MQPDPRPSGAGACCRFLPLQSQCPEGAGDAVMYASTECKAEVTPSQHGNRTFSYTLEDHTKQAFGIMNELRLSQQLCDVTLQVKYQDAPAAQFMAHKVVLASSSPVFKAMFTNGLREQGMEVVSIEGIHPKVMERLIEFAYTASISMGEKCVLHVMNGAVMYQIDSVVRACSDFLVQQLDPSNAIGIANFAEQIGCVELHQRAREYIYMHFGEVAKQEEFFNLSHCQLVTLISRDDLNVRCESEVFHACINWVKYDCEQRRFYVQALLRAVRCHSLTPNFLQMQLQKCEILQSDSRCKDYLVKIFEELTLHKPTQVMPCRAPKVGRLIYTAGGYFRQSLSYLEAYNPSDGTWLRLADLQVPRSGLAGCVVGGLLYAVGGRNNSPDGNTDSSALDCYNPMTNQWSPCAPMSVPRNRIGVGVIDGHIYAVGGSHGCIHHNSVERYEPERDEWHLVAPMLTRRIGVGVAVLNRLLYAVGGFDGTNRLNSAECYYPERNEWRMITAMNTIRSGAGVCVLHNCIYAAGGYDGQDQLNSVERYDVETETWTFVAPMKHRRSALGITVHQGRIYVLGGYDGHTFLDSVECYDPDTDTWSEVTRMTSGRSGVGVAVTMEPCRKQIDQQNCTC

Structure (SMILES) | Kd [3] | further results
CC[C@H](C)[C@H](NC(=O)[C@@H]1CCCN1C(=O)[C@H](CC(C)C)NC(=O)[C@H](Cc1ccccc1)NC(=O)[C@H](CCC(=O)O)NC(=O)CNC(=O)[C@@H](NC(=O)[C@H](CCC(=O)O)NC(=O)[C@H](CCC(=O)O)NC(=O)[C@H](CC(=O)O)NC(=O)[C@H](CC(C)C)NC(=O)[C@H](CCC(N)=O)NC(=O)[C@@H](N)CC(C)C)[C@@H](C)O)C(=O)N[C@@H](CCC(N)=O)C(=O)O | – | Kd [1]: 61.9 nM
Cc1cccc2c1CCN(C(=O)[C@H]1CCCC[C@H]1C(=O)O)[C@@H]2CN1Cc2ccccc2C1=O | – | IC50 [2]: 750 nM
CC(C)C[C@H](NC(=O)[C@@H](N)CC(=O)O)C(=O)NCC(=O)O (H-Asp-Leu-Gly-OH) | 1000 nM | –
C[C@@H](O)[C@H](NC(=O)[C@@H](N)CCC(=O)O)C(=O)NCC(=O)N[C@@H](CCC(=O)O)C(=O)O (H-ETGE-OH) | 5 nM | –

Source: ChEMBL document CHEMBL3421567, “Non-electrophilic modulators of the canonical Keap1/Nrf2 pathway” (Bioorg Med Chem Lett, 2015)
